Test results as given in ChEMBL document CHEMBL4831509, “Identification, semisynthesis, and anti-inflammatory evaluation of 2,3-seco-clavine-type ergot alkaloids from human intestinal fungus Aspergillus fumigatus CY018” (Eur J Med Chem, 2021).
The source made the active and inactive calls. The calls are words filed in the database; no cut-off is given here.

Tests used:
[1] = system: RAW264.7; assay: Antiinflammatory activity against LPS-induced mouse RAW264.7 cells assessed as inhibition of NO production preincubated for 1 hr followed by LPS stimulation and measured after 24 hrs by Greiss reagent based assay; type: functional, cell-based
[2] = system: RAW264.7; assay: Inhibition of MD2 in LPS-stimulated mouse RAW 264.7 cells assessed as reduction in p65 phosphorylation by western blot analysis; settings: dose 2.5-10 µM
[3] = system: RAW264.7; assay: Antiinflammatory activity against LPS-induced mouse RAW264.7 cells assessed as downregulation of COX2 protein expression at 2.5 to 10 uM by western blot analysis; type: functional, cell-based; settings: dose 2.5-10 µM
[4] = target: T1, Toll-like receptor 4 (Mus musculus) (UniProt Q9QUK6); assay: Binding affinity to TLR4 in mouse RAW264.7 cells assessed as inhibition of LPS/TLR4 colocalization at 10 uM preincubated for 1 hr followed by incubation with FITC-conjugated LPS for 1 hr by DAPI staining based confocal microscopy; type: cell-based; settings: time 2.0 hrs
T1 sequence (whole entry): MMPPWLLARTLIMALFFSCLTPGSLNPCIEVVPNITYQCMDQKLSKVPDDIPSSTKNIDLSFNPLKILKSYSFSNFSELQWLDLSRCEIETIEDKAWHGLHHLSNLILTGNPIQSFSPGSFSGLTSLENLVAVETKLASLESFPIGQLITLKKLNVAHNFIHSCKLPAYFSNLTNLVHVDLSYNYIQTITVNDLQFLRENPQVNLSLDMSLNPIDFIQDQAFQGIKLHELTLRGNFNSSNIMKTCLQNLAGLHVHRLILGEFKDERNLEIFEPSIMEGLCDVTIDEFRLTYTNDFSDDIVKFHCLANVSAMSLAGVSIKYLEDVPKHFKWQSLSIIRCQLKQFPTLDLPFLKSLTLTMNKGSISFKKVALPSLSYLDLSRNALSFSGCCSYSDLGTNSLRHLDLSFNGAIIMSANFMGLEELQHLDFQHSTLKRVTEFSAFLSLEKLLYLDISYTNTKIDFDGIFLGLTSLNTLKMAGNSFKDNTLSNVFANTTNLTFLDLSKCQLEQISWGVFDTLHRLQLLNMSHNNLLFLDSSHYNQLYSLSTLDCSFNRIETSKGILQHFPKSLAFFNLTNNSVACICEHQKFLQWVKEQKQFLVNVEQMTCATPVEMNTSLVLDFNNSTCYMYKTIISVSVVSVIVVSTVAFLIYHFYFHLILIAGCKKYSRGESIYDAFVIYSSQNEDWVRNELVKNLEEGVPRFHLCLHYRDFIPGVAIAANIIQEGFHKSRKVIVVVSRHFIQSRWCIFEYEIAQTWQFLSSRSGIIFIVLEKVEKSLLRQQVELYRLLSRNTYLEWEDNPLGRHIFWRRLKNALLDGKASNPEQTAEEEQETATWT

[5] = organism: Homo sapiens; assay: Binding affinity to MD2 (unknown origin) assessed as dissociation constant by surface plasmon resonance assay
[6] = system: RAW264.7; assay: Inhibition of MD2 in LPS-stimulated mouse RAW264.7 cells assessed as reduction in p38 phosphorylation at 2.5 to 10 uM measured by immunoblot analysis; settings: dose 2.5-10 µM
[7] = system: RAW264.7; assay: Downregulation of MD2 expression in mouse RAW264.7 cells at 2.5 to 10 uM by western blot analysis; type: functional, cell-based; settings: dose 2.5-10 µM
[8] = system: RAW264.7; assay: Antiinflammatory activity against LPS-induced mouse RAW264.7 cells assessed as reduction in IL-6 production at 10 uM preincubated for 1 hr followed by LPS stimulation and measured after 24 hrs by ELISA relative to control; type: functional; settings: time 25 hrs
[9] = system: RAW264.7; assay: Antiinflammatory activity against LPS-induced MD2-knockdown mouse RAW264.7 cells assessed as reduction in TNF-alpha mRNA expression by qRT-PCR analysis; type: functional, cell-based
[10] = system: RAW264.7; assay: Antiinflammatory activity against LPS-induced MD2-knockdown mouse RAW264.7 cells assessed as reduction in IL-6 mRNA expression by qRT-PCR analysis; type: functional, cell-based
[11] = system: RAW264.7; assay: Antiinflammatory activity against LPS-induced mouse RAW264.7 cells assessed as reduction in TNF-alpha production at 10 uM preincubated for 1 hr followed by LPS stimulation and measured after 24 hrs by ELISA relative to control; type: functional; settings: time 25 hrs
[12] = system: RAW264.7; assay: Downregulation of TLR4 expression in mouse RAW264.7 cells at 2.5 to 10 uM by western blot analysis; type: functional, cell-based; settings: dose 2.5-10 µM
[13] = system: RAW264.7; assay: Antiinflammatory activity against LPS-induced MD2-knockdown mouse RAW264.7 cells assessed as reduction in TNF-alpha secretion pretreated for 1 hr followed by LPS stimulation and measured after 24 hrs by ELISA; type: functional, cell-based; settings: time 25.0 hrs
[14] = system: RAW264.7; assay: Inhibition of MD2 in LPS-stimulated mouse RAW264.7 cells assessed as reduction in JNK phosphorylation at 2.5 to 10 uM measured by immunoblot analysis; settings: dose 2.5-10 µM
[15] = organism: Homo sapiens; assay: Binding affinity to MD2 (unknown origin) assessed as association constant by surface plasmon resonance assay
[16] = system: RAW264.7; assay: Binding affinity to MD2 in mouse RAW264.7 cells assessed as inhibition of LPS/MD2 colocalization at 10 uM preincubated for 1 hr followed by incubation with FITC-conjugated LPS for 1 hr by DAPI staining based confocal microscopy; type: cell-based; settings: time 2.0 hrs
[17] = system: RAW264.7; assay: Antiinflammatory activity against LPS-induced mouse RAW264.7 cells assessed as reduction in TNF-alpha production preincubated for 1 hr followed by LPS stimulation and measured after 24 hrs by ELISA; type: functional, cell-based; settings: dose 2.5-10 µM, time 25.0 hrs
[18] = system: RAW264.7; assay: Antiinflammatory activity against LPS-induced mouse RAW264.7 cells assessed as reduction in IL-6 production preincubated for 1 hr followed by LPS stimulation and measured after 24 hrs by ELISA; type: functional, cell-based; settings: dose 2.5-10 µM, time 25.0 hrs
[19] = Binding affinity to MD2 (unknown origin) assessed as equilibrium dissociation constant by surface plasmon resonance assay; design: species or system Homo sapiens
[20] = system: RAW264.7; assay: Antiinflammatory activity against LPS-induced MD2-knockdown mouse RAW264.7 cells assessed as reduction in iNOS mRNA expression by qRT-PCR analysis; type: functional, cell-based
[21] = system: RAW264.7; assay: Inhibition of MD2 in LPS-stimulated mouse RAW 264.7 cells assessed as reduction in IKKbeta phosphorylation by western blot analysis; settings: dose 2.5-10 µM
[22] = system: RAW264.7; assay: Inhibition of MD2 in LPS-stimulated mouse RAW264.7 cells assessed as reduction in ERK phosphorylation at 2.5 to 10 uM measured by immunoblot analysis; settings: dose 2.5-10 µM
[23] = system: RAW264.7; assay: Antiinflammatory activity against LPS-induced MD2-knockdown mouse RAW264.7 cells assessed as reduction in COX-2 mRNA expression by qRT-PCR analysis; type: functional, cell-based
[24] = system: RAW264.7; assay: Inhibition of MD2 in mouse RAW264.7 cells assessed as reduction in LPS-induced TLR4/MD2 complex formation preincubated for 30 mins followed by LPS stimulation for 30 mins by co-immunoprecipitation analysis; type: cell-based; settings: dose 2.5-10 µM, time 60.0 min
[25] = system: RAW264.7; assay: Antiinflammatory activity against LPS-induced mouse RAW264.7 cells assessed as downregulation of iNOS protein expression at 2.5 to 10 uM by western blot analysis; type: functional, cell-based; settings: dose 2.5-10 µM
[26] = system: RAW264.7; assay: Inhibition of MD2 in LPS-stimulated mouse RAW264.7 cells assessed as reduction in p65 nuclear translocation by measuring red fluorescence intensity in nucleus at 10 uM preincubated for 1 hr followed by LPS stimulation and measured after 6 hrs by DAPI staining based confocal microscopy; settings: time 7.0 hrs

C=CC(C)(C)C(=O)Nc1cccc2c1C(=O)C[C@H]1NC[C@H](C)[C@@H](OC(C)=O)[C@@H]21
IC50 [1]: 7.83 µM

C=CC(C)(C)C(=O)Nc1cccc2c3cc(C)cn(C)c-3cc(=O)c12
IC50 [1]: 9.47 µM

C=CC(C)(C)C(=O)Nc1cccc2c1C(=O)C[C@@H]1[C@H]2[C@H](OC(C)=O)[C@@H](C)CN1C
inhibition [2]: Dose-Dependent Effect | Activity [3]: Active | IC50 [1]: 3.48 µM | Activity [4]: inactive | Kdiss [5]: 0.0054 s⁻¹ | inhibition [6]: Active | inhibition [7]: Active | inhibition at 10 µM [8]: 84% | Activity [9]: inactive | Activity [10]: inactive | inhibition at 10 µM [11]: 68.2% | inhibition [12]: Active | Activity [13]: inactive | inhibition [14]: Active | Ka [15]: 373 M⁻¹ s⁻¹ | Activity [16]: Active | Activity [17]: Dose-Dependent Effect | Activity [18]: Dose-Dependent Effect | Kd [19]: 14.5 µM | Activity [20]: inactive | inhibition [21]: Dose-Dependent Effect | inhibition [22]: Active | Activity [23]: inactive | inhibition [24]: Dose-Dependent Effect | Activity [25]: Active | inhibition [26]: Active

C=CC(C)(C)c1[nH]c2cccc3c2c1C[C@@H]1[C@@H]3[C@@H](OC(C)=O)[C@H](C)CN1C
IC50 [1]: 22.8 µM

C=CC(C)(C)C(=O)Nc1cccc2c1C(=O)C[C@@H]1[C@@H]2[C@@H](OC(C)=O)[C@H](C)CN1C
IC50 [1]: 43.2 µM

COc1ccc2c(c1)c(CC(=O)O)c(C)n2C(=O)c1ccc(Cl)cc1 [INDOMETHACIN]
IC50 [1]: 11 µM

C=CC(C)(C)C(=O)Nc1cccc2c1C(=O)C[C@H]1NC[C@@H](C)[C@H](OC(C)=O)[C@H]21
IC50 [1]: 53.3 µM

C=CC(C)(C)c1[nH]c2cccc3c2c1C[C@H]1NC[C@@H](C)[C@H](OC(C)=O)[C@H]31
IC50 [1]: 60.4 µM
